The text below walks through data of ChEMBL document CHEMBL1275494, “Microbiological and genotypic analysis of methicillin-resistant Staphylococcus aureus bacteremia” (2008).

Activity calls are given as the source filed them. No cut-off for these calls is given here.

Assay [1] deals with Staphylococcus aureus. Nature of the assay: Antibacterial activity against SCCmec type 4 genotype-positive and methicillin-resistant Staphylococcus aureus by CLSI method. In kind it is functional, organism-based.
The subject of assay [2] is Staphylococcus aureus. Nature of the assay: Antibacterial activity against SCCmec type 2 genotype-positive and methicillin-resistant Staphylococcus aureus by CLSI method. The class given is functional, organism-based.

In the case of `C[C@H]1COc2c(N3CCN(C)CC3)c(F)cc3c(=O)c(C(=O)O)cn1c23`, in the assay with Staphylococcus aureus [1], the outcome was Active. Moreover, the outcome in the assay with Staphylococcus aureus [2] was inactive.

Turning to `CN(C)[C@@H]1C(O)=C(C(N)=O)C(=O)[C@@]2(O)C(O)=C3C(=O)c4c(O)cccc4[C@@](C)(O)[C@H]3C[C@@H]12`, the result in the assay with Staphylococcus aureus [1] was inactive.

Turning to `CCC[C@@H]1C[C@@H](C(=O)N[C@@H]([C@H]2O[C@H](SC)[C@H](O)[C@@H](O)[C@H]2O)[C@H](C)Cl)N(C)C1`, the outcome in the assay on Staphylococcus aureus [1] was Active. Further, the outcome in the assay with Staphylococcus aureus [2] was inactive.
